IC50 data for nine molecules are collected here from patent publication US8754038B2, “Template-fixed peptidomimetics with CCR10 antagonistic activity” (priority 2009, dated 2014).

Structures are written as SMILES. Numbered stars: 1 amine (or outer) side, 2 acyl side, 3 side chain; on linkers, the order of the positions; unused ones are H or OH. Square brackets hold non-standard residues; d marks the D form. Side chains are listed from the residue outwards. Peptide text beside a SMILES is read from it. * marks the point of attachment. Pro(4R-OPh) = O=C(O)[C@@H]1C[C@@H](Oc2ccccc2)CN1; Trp(6-Cl) = N[C@@H](Cc1c[nH]c2cc(Cl)ccc12)C(=O)O; Phe(4-CN) = N#Cc1ccc(C[C@H](N)C(=O)O)cc1; Hyp = O=C(O)[C@@H]1C[C@@H](O)CN1; Benzyl(4-Br) = Brc1ccc(C*)cc1; dPip = O=C(O)[C@H]1CCCCN1; Ac5c = NC1(C(=O)O)CCCC1; Dab = NCC[C@H](N)C(=O)O; X10 = N#Cc1ccc(C*)cc1; X14 = N#Cc1cccc(C*)c1; CO = O=C([*:1])[*:2]; NHPh = c1ccc(N*)cc1; Bn = c1ccc(C*)cc1

As usually defined, the IC50 is the concentration that gives 50% inhibition.

The target of assay [1] is T1, human CCR10 (Homo sapiens, UniProt P46092).
T1 construct: expressed in transfected cells
T1 sequence (P46092 1-362): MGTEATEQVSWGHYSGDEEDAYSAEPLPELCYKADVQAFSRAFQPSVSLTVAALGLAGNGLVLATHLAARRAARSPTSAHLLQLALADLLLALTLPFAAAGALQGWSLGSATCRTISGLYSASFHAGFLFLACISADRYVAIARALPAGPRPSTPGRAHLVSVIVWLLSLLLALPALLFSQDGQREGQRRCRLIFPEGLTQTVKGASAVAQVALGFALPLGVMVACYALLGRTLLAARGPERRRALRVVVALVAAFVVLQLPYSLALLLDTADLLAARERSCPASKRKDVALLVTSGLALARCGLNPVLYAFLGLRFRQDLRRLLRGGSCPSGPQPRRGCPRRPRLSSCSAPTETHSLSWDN
Nature of the assay: Calcium flux assay (CCR10 antagonism, CCL27 as agonist). Format: cell-based. As to conditions: CCR10 transfected 300-19 murine pre-B cells; CCL27 30 nM. As for the experimental part:
(§1) Lyophilized peptides were weighed on a Microbalance (Mettler MX5) and dissolved in aqueous 90% DMSO to a final concentration of 10 mM unless otherwise stated. Stock solutions were kept at +4° C., and protected from light.
(§2) Peptides were assayed for CCR10 antagonism in a calcium flux assay and in a chemotaxis assay using a mouse pre-B cell line 300-19 stably transfected with human CCR10, and with human CCL27 as agonist.
The calcium flux release was assessed using CCR10 transfected 300-19 murine pre-B cells. These cells were labeled as a batch with Calcium4 Reagent (Molecular Devices, Sunnyvale, Calif.) in HBSS buffer for 60 min.
After dispensing 8×10^4 cells in each well of a 384-well black plate, a concentrated solution of the β-hairpin peptidomimetics of this invention in HBSS+0.1% BSA+0.1% DMSO (final concentration) was added to the cells. The entire plate was centrifuged and placed in a Flexstation II (Molecular Devices) automated plate reader. After reading a 20 s baseline, the Flexstation dispensed CCL27 (RnD systems) at a final concentration of 30 nM in HBSS+0.1% BSA onto the cells and calcium flux was measured for an additional 70 s.
Alternatively a FIipR384 (Molecular Devices) was used for read out of the 384-well plates. In this case about 8×10^4 cells were placed in each well, centrifuged, placed in the FlipR and after 5 s of baseline reading, the β-hairpin peptidomimetics in HBSS+0.1% BSA+0.1% DMSO (final concentration) were added. After an incubation time of 5 min, the CCL27 solution was added to the mixture and the calcium flux was measured for 200 s.
The maximum signal was determined from control wells without inhibitor. Percentage of inhibition was calculated from a range of compound concentrations, which were subsequently used to calculate IC50 values (Softmax Pro, Molecular Devices). All steps were carried out at room temperature.

Assay [2] has as its target T1, human CCR10. As to the kind of experiment: Chemotaxis assay (CCR10-transfected 300-19 cells, CCL27 gradient). Type of assay: cell-based. As to conditions: CCR10-transfected 300-19 murine pre-B cells; 30 nM CCL27 gradient. As for the experimental part: as §1, §2
The chemotactic response of CCR10-transfected 300-19 murine pre-B cells to a gradient of CCL27 (CTACK) was measured using disposable Transwell® assay plates from Costar (5 μm pore size) according to the protocol of the manufacturer. Briefly, cells were grown under sterile conditions at 37° C. with 5% CO2 in flasks containing RPMI+5% FCS, glutamine, penicillin/streptomycin (all media components were from Life Technologies) and the appropriate selection antibiotics (Puromycin, G418 or Tetracycline). For the assay, cells were pelleted by centrifugation, washed once in Dulbecco's phosphate buffered saline (DPBS), and resuspended to give 1×10^6 cells/ml in RPMI+0.5% bovine serum albumin (BSA). 100 μl of cell suspension was applied to the top of the assay filter. The β-hairpin peptidomimetics, diluted in the same assay medium, were added to both top and bottom chambers. The cells were allowed to migrate for 4-6 hours at 37° C. into the bottom chamber of the assay plate containing 30 nM of CCL27 (RnD systems). Migrated cells were counted using a FACS cytometer (Cytomics FC500, Beckman Coulter). Data normalization was performed using the number of any cells that had migrated in the absence of the β-hairpin peptidomimetic and the number of cells that have randomly migrated in absence of CCL27 [these values were taken as 100% (no inhibitory activity) and 0%, respectively]. From a range of compound concentrations IC50 were determined using Prism5 (GraphPad software).

Consider `NCC[C@@H]1NC(=O)[C@H](Cc2c[nH]c3ccccc23)NC(=O)C2(CCCC2)NC(=O)[C@H](Cc2c[nH]c3cc(Cl)ccc23)NC(=O)[C@@H]2C[C@@H](OCc3ccccc3)CN2C(=O)[C@H]2CCCN2C1=O` [compound 48, cyclo(-Trp(6Cl)-Cyp-Trp-Dab-^DPro-Hyp(Bn)-)] (cyclo([Ac5c]W[Dab][dP][Hyp](Bn)[Trp(6-Cl)])), for which the values for the IC50 at human CCR10 [1] and at human CCR10 [2] were 8.5 ± 3.5 nM and 8.6 nM, respectively.

On to `N#Cc1ccc(C[C@@H]2NC(=O)[C@@H]3C[C@@H](OCc4ccccc4)CN3C(=O)[C@H]3CCCN3C(=O)[C@H](CCN)NC(=O)[C@H](Cc3c[nH]c4ccccc34)NC(=O)C3(CCCC3)NC2=O)cc1` [compound 49, cyclo(-Phe(4CN)-Cyp-Trp-Dab-^DPro-Hyp(Bn)-)] (cyclo([Ac5c]W[Dab][dP][Hyp](Bn)[Phe(4-CN)])), for which the IC50 amounted to 181 ± 110 nM on human CCR10 [1] and 5.3 nM against human CCR10 [2].

With `N#Cc1ccc(C[C@@H]2NC(=O)[C@@H]3C[C@@H](OCc4ccccc4)CN3C(=O)[C@H]3CCCCN3C(=O)[C@H](CO)NC(=O)[C@H](Cc3c[nH]c4ccccc34)NC(=O)C3(CCCC3)NC2=O)cc1` [compound 50, cyclo(-Phe(4CN)-Cyp-Trp-Ser-^DPip-Hyp(Bn)-)] (cyclo([Ac5c]WS[dPip][Hyp](Bn)[Phe(4-CN)])), the values for the IC50 on human CCR10 [1] and against human CCR10 [2] were 0.5 ± 0.2 nM and 1.8 nM, respectively.

`NCC[C@@H]1NC(=O)[C@H](Cc2c[nH]c3ccccc23)NC(=O)C2(CCCC2)NC(=O)[C@H](Cc2c[nH]c3ccccc23)NC(=O)[C@@H]2C[C@@H](Oc3ccccc3)CN2C(=O)[C@H]2CCCN2C1=O` [compound 52, cyclo(-Trp-Cyp-Trp-Dab-^DPro-Hyp(Ph)-)] (cyclo([Ac5c]W[Dab][dP][Pro(4R-OPh)]W)): the IC50 at human CCR10 [1] stood at 42 ± 25.1 nM; against human CCR10 [2], 37 nM.

For the molecule `N#Cc1ccc(CO[C@@H]2C[C@H]3C(=O)N[C@@H](Cc4c[nH]c5ccccc45)C(=O)NC4(CCCC4)C(=O)N[C@@H](Cc4c[nH]c5ccccc45)C(=O)N[C@@H](CCN)C(=O)N4CCC[C@@H]4C(=O)N3C2)cc1` [compound 53, cyclo(-Trp-Cyp-Trp-Dab-^DPro-Hyp(4CNBn)-)] (cyclo([Ac5c]W[Dab][dP][Hyp](X10)W)), the IC50 was found to be 48.9 ± 40 nM on human CCR10 [1] and 143 nM against human CCR10 [2].

`N#Cc1ccc(C[C@@H]2NC(=O)[C@@H]3C[C@@H](OCc4ccc(Br)cc4)CN3C(=O)[C@H]3CCCN3C(=O)[C@H](CO)NC(=O)[C@H](Cc3c[nH]c4ccccc34)NC(=O)C3(CCCC3)NC2=O)cc1` [compound 55, cyclo(-Phe(4CN)-Cyp-Trp-Ser-^DPro-Hyp(4BrBn)-)] (cyclo([Ac5c]WS[dP][Hyp](Benzyl(4-Br))[Phe(4-CN)])): the IC50 stood at 5.3 ± 3.9 nM on human CCR10 [1] and 0.6 nM on human CCR10 [2].

Take `NCC[C@@H]1NC(=O)[C@H](Cc2c[nH]c3ccccc23)NC(=O)C2(CCCC2)NC(=O)[C@H](Cc2c[nH]c3ccccc23)NC(=O)[C@@H]2C[C@@H](OCc3ccc(Br)cc3)CN2C(=O)[C@H]2CCCN2C1=O` [compound 56, cyclo(-Trp-Cyp-Trp-Dab-^DPro-Hyp(4BrBn)-)] (cyclo([Ac5c]W[Dab][dP][Hyp](Benzyl(4-Br))W)): the IC50 on human CCR10 [1] amounted to 11.6 ± 9.2 nM; on human CCR10 [2], 2.5 nM.

`NCC[C@@H]1NC(=O)[C@H](Cc2c[nH]c3ccccc23)NC(=O)C2(CCCC2)NC(=O)[C@H](Cc2c[nH]c3ccccc23)NC(=O)[C@@H]2C[C@@H](OC(=O)Nc3ccccc3)CN2C(=O)[C@H]2CCCN2C1=O` [compound 57, cyclo(-Trp-Cyp-Trp-Dab-^DPro-Hyp(CONHPh)-)] (cyclo([Ac5c]W[Dab][dP][Hyp]([CO-NHPh])W)): the IC50 amounted to 150 ± 110 nM on human CCR10 [1] and 183 nM against human CCR10 [2].

On to `N#Cc1cccc(CO[C@@H]2C[C@H]3C(=O)N[C@@H](Cc4c[nH]c5ccccc45)C(=O)NC4(CCCC4)C(=O)N[C@@H](Cc4c[nH]c5ccccc45)C(=O)N[C@@H](CCN)C(=O)N4CCC[C@@H]4C(=O)N3C2)c1` [compound 77, cyclo(-Trp-Cyp-Trp-Dab-^DPro-Hyp(3CNBn)-)] (cyclo([Ac5c]W[Dab][dP][Hyp](X14)W)), for which the IC50 on human CCR10 [1] is 127 ± 73 nM; at human CCR10 [2], 50.7 nM.
